Consider 32 compounds from patent US10227350B2 (Gilead Sciences, Inc., priority 2016, dated 2019).

Chain of PI3Kβ (P42338 whole entry, the tested form may be a part): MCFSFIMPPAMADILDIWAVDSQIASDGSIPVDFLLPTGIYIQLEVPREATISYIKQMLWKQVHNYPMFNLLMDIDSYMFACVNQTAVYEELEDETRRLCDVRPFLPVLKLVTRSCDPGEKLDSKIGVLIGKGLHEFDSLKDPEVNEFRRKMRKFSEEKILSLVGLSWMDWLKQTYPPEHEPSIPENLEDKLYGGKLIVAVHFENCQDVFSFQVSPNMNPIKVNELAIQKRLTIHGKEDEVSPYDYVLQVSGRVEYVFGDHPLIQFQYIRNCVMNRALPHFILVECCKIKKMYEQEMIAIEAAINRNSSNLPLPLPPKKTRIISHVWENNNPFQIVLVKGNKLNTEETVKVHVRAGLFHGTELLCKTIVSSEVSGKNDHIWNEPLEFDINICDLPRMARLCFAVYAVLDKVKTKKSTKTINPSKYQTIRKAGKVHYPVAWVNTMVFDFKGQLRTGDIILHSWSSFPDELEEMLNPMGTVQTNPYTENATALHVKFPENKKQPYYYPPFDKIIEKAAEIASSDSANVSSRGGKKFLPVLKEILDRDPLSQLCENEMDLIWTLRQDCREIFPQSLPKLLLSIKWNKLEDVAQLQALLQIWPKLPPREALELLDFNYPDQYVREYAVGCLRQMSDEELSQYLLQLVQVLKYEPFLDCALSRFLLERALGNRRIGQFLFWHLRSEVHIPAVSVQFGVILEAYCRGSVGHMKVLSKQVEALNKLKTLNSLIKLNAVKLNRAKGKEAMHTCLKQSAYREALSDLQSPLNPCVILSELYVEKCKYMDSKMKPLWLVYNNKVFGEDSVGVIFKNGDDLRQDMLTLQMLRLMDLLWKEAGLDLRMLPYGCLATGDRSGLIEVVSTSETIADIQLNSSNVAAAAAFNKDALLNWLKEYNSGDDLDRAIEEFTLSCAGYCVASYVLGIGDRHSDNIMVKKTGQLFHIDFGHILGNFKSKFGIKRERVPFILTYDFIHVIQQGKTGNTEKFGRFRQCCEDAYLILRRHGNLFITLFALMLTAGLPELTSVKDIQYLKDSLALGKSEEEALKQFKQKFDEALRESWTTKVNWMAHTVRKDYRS
Chain of PI3Kβ (P27986 whole entry partner, the tested form may be a part): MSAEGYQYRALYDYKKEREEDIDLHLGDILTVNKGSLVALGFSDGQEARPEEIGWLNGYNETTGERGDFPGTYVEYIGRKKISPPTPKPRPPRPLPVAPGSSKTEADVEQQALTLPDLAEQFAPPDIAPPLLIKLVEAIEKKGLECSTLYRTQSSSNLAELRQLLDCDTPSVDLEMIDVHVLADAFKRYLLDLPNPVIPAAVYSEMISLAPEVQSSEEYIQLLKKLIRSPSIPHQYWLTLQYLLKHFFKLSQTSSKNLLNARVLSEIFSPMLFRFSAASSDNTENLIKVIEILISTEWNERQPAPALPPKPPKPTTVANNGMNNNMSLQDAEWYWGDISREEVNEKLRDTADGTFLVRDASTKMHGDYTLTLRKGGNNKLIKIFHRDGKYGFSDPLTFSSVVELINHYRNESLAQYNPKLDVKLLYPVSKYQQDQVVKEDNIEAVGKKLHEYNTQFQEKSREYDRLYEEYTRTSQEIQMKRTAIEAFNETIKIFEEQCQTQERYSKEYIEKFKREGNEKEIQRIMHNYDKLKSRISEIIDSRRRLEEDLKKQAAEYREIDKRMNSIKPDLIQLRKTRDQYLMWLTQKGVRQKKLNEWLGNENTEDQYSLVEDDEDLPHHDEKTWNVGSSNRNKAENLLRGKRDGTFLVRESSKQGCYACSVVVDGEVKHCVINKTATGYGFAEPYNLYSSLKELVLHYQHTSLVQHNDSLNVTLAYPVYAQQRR

For this assay, the target named is PI3Kβ (Homo sapiens (Human), UniProt P42338). The assay can be described thus: TR-FRET enzymatic activity assay, PI3Kβ. It counts as biochemical. Conditions: 2× Km ATP, 2 μM PIP2, 30 minutes at 25° C., read-out: IC50-PIP-Beta. The method, boiled down:
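Purified recombinant heterodimeric PI3Kβ; PIP3 formation read by TR-FRET as competition with fluorescent tracer for GRP-1 PH domain binding. Compounds incubated 30 min at 25 °C.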
A general note: TR-FRET usually uses a lanthanide donor and a delayed reading to cut background.
Take `Cc1nc2c(-c3nnc[nH]3)cc(-c3ccncc3)cc2n1-c1ccnc2c(Cl)ccc(Cl)c12` [Example 29, 5,8-dichloro-4-[2-methyl-6-pyridin-4-yl-4-(4H-1,2,4-triazol-3-yl)benzimidazol-1-yl]quinoline]: the IC50 was 6 nM.

As to `Cc1nc2c(-c3nnc[nH]3)cc(-c3ccnc(C#N)c3)cc2n1-c1ccnc2c(Cl)ccc(Cl)c12` [Example 145, 4-(1-(5,8-dichloroquinolin-4-yl)-2-methyl-4-(4H-1,2,4-triazol-3-yl)-1H-benzo[d]imidazol-6-yl)picolinonitrile], the IC50 stood at 2 nM.

Consider `Cc1nc2c(C(N)=O)cc(-c3ccnc(N)c3F)cc2n1-c1ccnc2c(F)ccc(F)c12` [Example 26, 6-(2-amino-3-fluoropyridin-4-yl)-1-(5,8-difluoroquinolin-4-yl)-2-methyl-1H-benzo[d]imidazole-4-carboxamide], for which the half-maximal inhibitory concentration (IC50) is 13 nM.

As to `Cc1nc2c(C(N)=O)cc(-c3ccnc(N)n3)cc2n1-c1ccnc2c(Cl)cccc12` [Example 19, 6-(2-aminopyrimidin-4-yl)-1-(8-chloroquinolin-4-yl)-2-methylbenzimidazole-4-carboxamide], the concentration for half-maximal inhibition (IC50) was found to be 12 nM.

In the case of `Cc1nc2c(-c3nnc[nH]3)cc(-c3ccnc(C#N)c3)cc2n1-c1ccnc2cccc(F)c12` [Example 147, 4-(1-(5-fluoroquinolin-4-yl)-2-methyl-4-(4H-1,2,4-triazol-3-yl)-1H-benzo[d]imidazol-6-yl)picolinonitrile], the IC50 worked out at 4 nM.

For `Cc1nnc(-c2cc(-c3ccnc(C#N)c3)cc3c2nc(C)n3-c2ccnc3c(F)ccc(F)c23)[nH]1` [Example 151, 4-(1-(5,8-difluoroquinolin-4-yl)-2-methyl-4-(5-methyl-4H-1,2,4-triazol-3-yl)-1H-benzo[d]imidazol-6-yl)picolinonitrile], the IC50 was 80 nM.

As for `Cc1nc2c(-c3nnc[nH]3)cc(-c3ccnc(C#N)c3)cc2n1-c1ccnc2c(F)cccc12` (single isomer, unassigned) [Example 128, 4-(1-(8-fluoroquinolin-4-yl)-2-methyl-4-(4H-1,2,4-triazol-3-yl)-1H-benzo[d]imidazol-6-yl)picolinonitrile], the IC50 was 360 nM.

As to `Clc1cccc2c(-n3cnc4c(-c5ncn[nH]5)cc(-c5ccncc5)cc43)ccnc12` [Example 27, 8-chloro-4-[6-pyridin-4-yl-4-(1H-1,2,4-triazol-5-yl)benzimidazol-1-yl]quinoline], the IC50 worked out at 5 nM.

For the compound `Cc1nc2c(-c3nnc[nH]3)cc(-c3ccncc3F)cc2n1-c1ccnc2c(Cl)cccc12` (single isomer, unassigned) [Example 138, 8-chloro-4-(6-(3-fluoropyridin-4-yl)-2-methyl-4-(4H-1,2,4-triazol-3-yl)-1H-benzo[d]imidazol-1-yl)quinoline], the IC50 was 99 nM.

For `CCc1nc2c(-c3nnc[nH]3)cc(-c3ccnc(N)c3F)cc2n1-c1ccnc2c(F)ccc(F)c12` (single isomer, unassigned) [Example 109, 4-[3-(5,8-difluoroquinolin-4-yl)-2-ethyl-7-(4H-1,2,4-triazol-3-yl)benzimidazol-5-yl]-3-fluoropyridin-2-amine], the IC50 was found to be 2600 nM.

`Cc1nc2c(-c3nnc[nH]3)cc(-c3ccnc(C#N)c3)cc2n1-c1ccnc2c(F)ccc(F)c12` [Example 44, 4-[3-(5,8-difluoroquinolin-4-yl)-2-methyl-7-(4H-1,2,4-triazol-3-yl)benzimidazol-5-yl]pyridine-2-carbonitrile]: the half-maximal inhibitory concentration (IC50) was determined as 4 nM.

For the compound `Cc1nc2c(-c3nnc[nH]3)cc(-c3ccnc(C#N)c3)cc2n1-c1ccnc2c(F)ccc(Cl)c12` [Example 144, 4-(1-(5-chloro-8-fluoroquinolin-4-yl)-2-methyl-4-(4H-1,2,4-triazol-3-yl)-1H-benzo[d]imidazol-6-yl)picolinonitrile], the concentration for half-maximal inhibition (IC50) stood at 18 nM.

For the compound `CCc1nc2c(-c3nnc[nH]3)cc(-c3ccnc(N)c3F)cc2n1-c1ccnc2c(F)ccc(F)c12` [Example 95, 4-[3-(5,8-difluoroquinolin-4-yl)-2-ethyl-7-(4H-1,2,4-triazol-3-yl)benzimidazol-5-yl]-3-fluoropyridin-2-amine], the IC50 came to 5 nM.

In the case of `Cc1nc2c(-c3nnc[nH]3)cc(-c3ccnc(C#N)c3)cc2n1-c1ccnc2c(Cl)ccc(F)c12` (single isomer, unassigned) [Example 136, 4-(1-(8-chloro-5-fluoroquinolin-4-yl)-2-methyl-4-(4H-1,2,4-triazol-3-yl)-1H-benzo[d]imidazol-6-yl)picolinonitrile], the IC50 was found to be 220 nM.

For the compound `Cc1nc2c(C(=O)O)cc(-c3ncnc4[nH]cnc34)cc2n1-c1ccnc2c(Cl)cccc12` [Example 3], the IC50 is 2800 nM.

On to `Cc1nc2c(-c3nnc[nH]3)cc(-c3ccnc(N)c3F)cc2n1-c1ccnc2c(F)cccc12` [Example 86, 3-fluoro-4-[3-(8-fluoroquinolin-4-yl)-2-methyl-7-(4H-1,2,4-triazol-3-yl)benzimidazol-5-yl]pyridin-2-amine], for which the IC50 amounted to 7 nM.

Take `Nc1cc(-c2cc(-c3nnc[nH]3)c3nc(C4CC4)n(-c4ccnc5c(F)ccc(F)c45)c3c2)ccn1` [Example 69, 4-[2-cyclopropyl-3-(5,8-difluoroquinolin-4-yl)-7-(4H-1,2,4-triazol-3-yl)benzimidazol-5-yl]pyridin-2-amine]: the 50% inhibitory concentration (IC50) was determined as 47 nM.

Regarding `Cc1nc2c(-c3nnc[nH]3)cc(-c3ccnc(C#N)c3)cc2n1-c1ccnc2c(F)cccc12` [Example 148, 4-(1-(8-fluoroquinolin-4-yl)-2-methyl-4-(4H-1,2,4-triazol-3-yl)-1H-benzo[d]imidazol-6-yl)picolinonitrile], the IC50 came out at 16 nM.

For `Cc1nc2c(-c3nnc[nH]3)cc(-c3ccnc(C#N)c3)cc2n1-c1ccnc2c(F)ccc(Cl)c12` (single isomer, unassigned) [Example 123, 4-(1-(5-chloro-8-fluoroquinolin-4-yl)-2-methyl-4-(4H-1,2,4-triazol-3-yl)-1H-benzo[d]imidazol-6-yl)picolinonitrile], the IC50 amounted to 8 nM.

For the compound `Cc1nc2c(-c3nnc[nH]3)cc(-c3ccnc(C#N)c3)cc2n1-c1ccnc2c(F)cccc12` (single isomer, unassigned) [Example 127, 4-(1-(8-fluoroquinolin-4-yl)-2-methyl-4-(4H-1,2,4-triazol-3-yl)-1H-benzo[d]imidazol-6-yl)picolinonitrile], the IC50 came to 9 nM.

Turning to `Cc1cc(-c2cc(-c3nnc[nH]3)c3nc(C)n(-c4ccnc5c(F)ccc(F)c45)c3c2)cc(N)n1` [Example 90, 4-[3-(5,8-difluoroquinolin-4-yl)-2-methyl-7-(4H-1,2,4-triazol-3-yl)benzimidazol-5-yl]-6-methylpyridin-2-amine], the IC50 turned out to be 340 nM.

Turning to `NC(=O)c1cc(-c2ccncc2)cc2c1ncn2-c1ccnc2c(Cl)cccc12` [Example 5, 1-(8-chloroquinolin-4-yl)-6-pyridin-4-ylbenzimidazole-4-carboxamide], the IC50 worked out at 86 nM.

On to `CCCc1nc2c(-c3nnc(C)[nH]3)cc(-c3ccnc(N)c3)cc2n1-c1ccnc2c(Cl)ccc(F)c12` [Example 65, 4-[3-(8-chloro-5-fluoroquinolin-4-yl)-7-(5-methyl-4H-1,2,4-triazol-3-yl)-2-propylbenzimidazol-5-yl]pyridin-2-amine], for which the IC50 was determined as 16 nM.

In the case of `Nc1nccc(-c2cc(-c3nnc[nH]3)c3ncn(-c4cc(N5CCNCC5)nc5ccccc45)c3c2)c1F` [Example 162, 3-fluoro-4-(1-(2-(piperazin-1-yl)quinolin-4-yl)-4-(4H-1,2,4-triazol-3-yl)-1H-benzo[d]imidazol-6-yl)pyridin-2-amine], the 50% inhibitory concentration (IC50) came out at 10 nM.

For the compound `Cc1nc2c(-c3nnc[nH]3)cc(-c3ccncc3)cc2n1-c1ccnc2c(Cl)cccc12` [Example 38, 8-chloro-4-[2-methyl-6-pyridin-4-yl-4-(4H-1,2,4-triazol-3-yl)benzimidazol-1-yl]quinoline], the half-inhibitory concentration (IC50) was 7 nM.

In the case of `Cc1nc2c(-c3nnc[nH]3)cc(-c3ccncc3)cc2n1-c1ccnc2c(Cl)ccc(F)c12` [Example 37, 8-chloro-5-fluoro-4-[2-methyl-6-pyridin-4-yl-4-(4H-1,2,4-triazol-3-yl)benzimidazol-1-yl]quinoline], the IC50 stood at 4 nM.

`Cc1nc2c(C(N)=O)cc(-c3ncnc(N)c3C#N)cc2n1-c1ccnc2c(F)ccc(F)c12` [Example 157, 6-(6-amino-5-cyanopyrimidin-4-yl)-1-(5,8-difluoroquinolin-4-yl)-2-methyl-1H-benzo[d]imidazole-4-carboxamide]: the IC50 was 460 nM.

Take `Cc1nc2c(-c3nnc[nH]3)cc(-c3cc(F)ncc3F)cc2n1-c1ccnc2c(F)ccc(F)c12` [Example 41, 4-[6-(2,5-difluoropyridin-4-yl)-2-methyl-4-(4H-1,2,4-triazol-3-yl)benzimidazol-1-yl]-5,8-difluoroquinoline]: the IC50 amounted to 27 nM.

For `Cc1cc(-c2cc(-c3nnc[nH]3)c3nc(C)n(-c4ccnc5c(F)ccc(F)c45)c3c2)ccn1` (single isomer, unassigned) [Example 141, 5,8-difluoro-4-(2-methyl-6-(2-methylpyridin-4-yl)-4-(4H-1,2,4-triazol-3-yl)-1H-benzo[d]imidazol-1-yl)quinoline], the IC50 was 120 nM.

As for `Cc1nc2c(-c3nnc[nH]3)cc(-c3ccnc(N)c3F)cc2n1-c1ccnc2c(F)ccc(Cl)c12` [Example 99, 4-[3-(5-chloro-8-fluoroquinolin-4-yl)-2-methyl-7-(4H-1,2,4-triazol-3-yl)benzimidazol-5-yl]-3-fluoropyridin-2-amine], the IC50 was found to be 29 nM.

With `Cc1nc2c(-c3nnc[nH]3)cc(-c3ccnc(C#N)n3)cc2n1-c1ccnc2c(F)ccc(F)c12` [Example 152, 4-(1-(5,8-difluoroquinolin-4-yl)-2-methyl-4-(4H-1,2,4-triazol-3-yl)-1H-benzo[d]imidazol-6-yl)pyrimidine-2-carbonitrile], the IC50 worked out at 10 nM.

Regarding `Cc1cccc2nccc(-n3c(C)nc4c(-c5nnc[nH]5)cc(-c5ccncc5)cc43)c12` [Example 31, 5-methyl-4-[2-methyl-6-pyridin-4-yl-4-(4H-1,2,4-triazol-3-yl)benzimidazol-1-yl]quinoline], the IC50 was found to be 89 nM.

A word on the IC50: it is the concentration that gives 50% inhibition.
